Experimental findings from patent US6413983B1, “Benzopyranyl heterocycle derivatives, process for preparation thereof, and pharmaceutical compositions containing them” (Dongbu Hannong Chemical Co. Ltd., priority 2000, dated 2002) are described below.

Assay [1] deals with cerebral cortical neurons. Put plainly: Protective activity for neuronal cells against iron-induced damage (LDH release). It counts as cell-based, rat. The following applies: 30 μM compound, 50 uM FeSO4, 24 hours, LDH reduction rate vs control. The method, then:
From the brains of 17-18 day-old rat embryos, cerebral cortical neurons were isolated and then, cultured at 37° C. for 7-9 days in a 5% CO2 incubator. The cortical cell cultures were washed twice with a minimum essential medium (MEM) to reduce the serum concentration to 0.2% and pre-treated for 30 min with 30 μM of each of test compounds. For the experiments, the test compounds were dissolved in DMSO and diluted in a medium. At this time, the final concentration of DMSO was not allowed to exceed 0.2%. For a control group, only vehicle was applied.
After the pre-treatment with test compounds or vehicle, FeSO4 was added to a final concentration of 50 uM, and the cultures were maintained for 24 hours in a CO2 incubator. During incubation, lactate dehydrogenase (LDH) was released into the medium upon neuronal death by the oxidative toxicity of iron. The extent of neuronal damage was assessed by measuring the amount of LDH released into the media. The protective effect of the compounds of interest on neurons was evaluated by calculating the LDH reduction rate of treatment group compared with that of the control group.
For orientation: LDH leaks from cells whose membrane has failed.

In assay [2] the test system is isolated rat aorta constricted with methoxamine. Nature of the assay: Vasodilation effects on isolated aorta of rats (methoxamine-constricted rings). The note with it: isolated rat aorta constricted with methoxamine (3 μM); 50% relaxation.
Description: Male Sprague-Dawly rats (350-450 g, obtained from the Experimental Animal Team of the Korea Research Institute of Chemical Technology) were knocked unconscious by hitting the occipital region, sacrificed by cervical dislocation, and underwent thoracotomy. After being quickly removed, the thoracic aorta was deprived of the adipose tissue and cut into aortic rings of 3 mm width. The aorta was lightly rubbed with cotton club soaked in a modified Krebs Henseleit buffer (Physiological Salt Solution, PSS) to remove the inner epithelial layer therefrom.
Thereafter, 3×10^−6 M methoxamine was applied to induce an intensive constriction in the vascular smooth muscle. When the vasoconstriction induced by the methoxamine was reached and maintained to a maximum, test compounds and controls were cumulatively added to the organ baths in concentrations of 1, 3, 10 and 30 μM so as to examine the vasodilation effect.
The change rate of constriction by the addition of the drugs compared to the maximal constriction induced by methoxamine was calculated to plot a concentration-relaxation response curve.
Another assay deals with isolated rat hearts. Put plainly: Cardioprotective activity in isolated ischemic heart models of rats (Langendorff, global ischemia/reperfusion). The note with it: 10 μM; for LDH (U/g): cumulative reperfusion LDH release; for EDP (MmHg): left ventricular end-diastolic pressure after 30 min reperfusion; for LDVP × HR (%): reperfusion double product as % of pretreatment DP, 30 min global ischemia, 30 min reperfusion; for TTC: time to contracture during global ischemia. The method, then:
Male Sprague-Dawley rats weighing 300-450 g were anesthetized with sodium pentobarbital (100 mg/kg, i.p.). The tail vein was injected with heparin (1,000 U/kg) and then the trachea was intubated. […] A latex balloon filled with solvent (ethanol: water=1:1 (v/v)) and attached to a metal cannula was placed in the left ventricle through pulmonary vein and connected to a Isotec pressure transducer (H.S.E., Germany) for measurement of left ventricular pressure (LVP). […] Then, baseline contractile function, heart rate (HR), and coronary flow (CF) (extracorporeal electromagnetic flow probe, Narco Bio-System, U.S.A.) were measured. Cardiac contractile function was calculated by subtracting LVEDP from LV peak systolic pressure (LVSP), yielding developed pressure (LVDP). Double product (DP), another important parameter for assessing cardiac performance, was calculated by multiplying HR by LVDP. Throughout the experiment, all these parameters were measured, and calculated before and 10 min after pretreatment with each compound and 30 min after the onset of reperfusion with buffer. Data on reperfusion DP were further expressed as the percentage to pretreatment DP.
We then rendered the hearts globally ischemic by completely shutting off the perfusate for 30 min. Severity of ischemia was determined as the time to contracture (TTC, min) during global ischemia in which the first 5 mmHg increase in EDP was observed. Then, the hearts were reperfused and, 30 min later, contractile function (LVDP, DP) and cumulative reperfusion lactate dehydrogenase (LDH) release were measured. LDH was measured as a sensitive index for loss of cell viability with a kit supplied by Boerhinger Mannheim based on the technique of Wroblewski and LaDue [F. Wroblewski and JS.

For the molecule `CCOC(=O)[C@@H]1Cc2ccccc2N1[C@@H]1c2cc([N+](=O)[O-])ccc2O[C@](C)(C(OC)OC)[C@H]1O` [Example 4, 1-[(2S, 3S, 4R)-3,4-dihydro-2-dimethoxymethyl-3-hydroxy-2-methyl-6-nitro-2H-1-benzopyran-4-yl]-(2S)-2,3-dihydro-1H-indole-2-carboxylic acid ethyl ester], the “% Protection” value in assay [1] (listed as EX. 4) stood at 98%.
With `COC(=O)[C@H]1CCc2ccccc2N1[C@H]1c2cc([N+](=O)[O-])ccc2O[C@](C)(C(OC)OC)[C@@H]1O` [Example 54, 1-[(2S, 3R, 4S)-3,4-dihydro-2-dimethoxymethyl-3-hydroxy-2-methyl-6-nitro-2H-1-benzopyran-4-yl]-(2R)-1,2,3,4-tetrahydro-1H-quinoline-2-carboxylic acid methyl ester], the “% Protection” value in assay [1] came to 100%; in assay [1] (listed as EX. 54), 101%.
As to `COC(=O)[C@H]1Cc2ccccc2N1[C@H]1c2cc([N+](=O)[O-])ccc2O[C@](C)(C(OC)OC)[C@@H]1O` [Example 5, 1-[(2S, 3R, 4S)-3,4-dihydro-2-dimethoxymethyl-3-hydroxy-2-methyl-6-nitro-2H-1-benzopyran-4-yl]-1H-(2R)-2,3-dihydroindole-2-carboxylic acid methyl ester], in assay [1], the “% Protection” value worked out at 79%.
`CCOC(=O)[C@H]1Cc2cc(F)ccc2N1[C@H]1c2cc([N+](=O)[O-])ccc2O[C@](C)(C(OC)OC)[C@@H]1O` [Example 15, 1-[(2S, 3R,4S)-3,4-dihydro-2-dimethoxymethyl-3-hydroxy-2-methyl-6-nitro-2H-1-benzopyran-4-yl]-(2R)-2,3-dihydro-1H-5-fluoroindole-2-carboxylic acid ethyl ester] had an IC50 in assay [2] greater than 30 µM. Besides, in the assay on isolated rat hearts, the “LDH (U/g)” value amounted to 12.0 U/g, the “EDP (MmHg)” value was 2.7 MmHg, the “LDVP × HR (%)” value was determined as 53.3% and the “TTC” value was 24.8 min.
As for `CC1(C)Oc2ccc(C#N)cc2C(N2CCCC2=O)C1O` (stereo not drawn) [CromaKalim, Cromakalim, reference compound], half-maximal inhibition in assay [2] (IC50) was put at 0.067 µM.
Turning to `COC(=O)c1cc2ccccc2n1[C@H]1c2cc([N+](=O)[O-])ccc2O[C@](C)(C(OC)OC)[C@@H]1O` [Example 48, 1-[(2S, 3R, 4S)-3,4-dihydro-2-dimethoxymethyl-3-hydroxy-2-methyl-6-nitro-2H-1-benzopyran-4-yl]-1H-indole-2-carboxylic acid methyl ester], in assay [2], the half-maximal inhibitory concentration (IC50) worked out at 24 µM. In the assay on isolated rat hearts, the “LDH (U/g)” value stood at 16.7 U/g, the “EDP (MmHg)” value is recorded as 9.5 MmHg, the “LDVP × HR (%)” value is 79.5% and the “TTC” value was found to be 22.0 min.
In the case of “(2S, 2aS, 10aR)-[(3,4-b)-2a,10a-dihydro-2-dimethoxymethyl-2-methyl-12-nitro-2H-1-benzopyrano]-[(1,2-d)-10H-indolino]-4-oxomorpholine [Example 63]”, the “% Protection” value in assay [1] is reported as 100%.
The same measure, in the same setting: the figure for `CCOC(=O)[C@@H]1Cc2cc(OC)ccc2N1[C@H]1c2cc([N+](=O)[O-])ccc2O[C@](C)(C(OC)OC)[C@@H]1O` [Example 12, 1-[(2S, 3R, 4S)-3,4-dihydro-2-dimethoxymethyl-3-hydroxy-2-methyl-6-nitro-2H-1-benzopyran-4-yl]-(2S)-2,3-dihydro-1H-5-methoxyindole-2-carboxylic acid ethyl ester] is 85%.
The same measure, in the same setting: the figure for `CCOC(=O)[C@@H]1Cc2cc(F)ccc2N1[C@H]1c2cc([N+](=O)[O-])ccc2O[C@](C)(C(OC)OC)[C@@H]1O` [Example 16, 1-[(2S, 3R, 4S)-3,4-dihydro-2-dimethoxymethyl-3-hydroxy-2-methyl-6-nitro-2H-1-benzopyran-4-yl]-(2S)-2,3-dihydro-1H-5-fluoroindole-2-carboxylic acid ethyl ester] is 73%.
In assay [2], `COC(=O)[C@H]1CCc2ccccc2N1[C@@H]1c2cc([N+](=O)[O-])ccc2O[C@](C)(C(OC)OC)[C@H]1O` [Example 56, 1-[(2S, 3S, 4R)-3,4-dihydro-2-dimethoxymethyl-3-hydroxy-2-methyl-6-nitro-2H-1-benzopyran-4-yl]-(2R)-1,2,3,4-tetrahydro-1H-quinoline-2-carboxylic acid methyl ester] yielded a concentration for half-maximal inhibition (IC50) of 11.4 µM. Also, in the assay with isolated rat hearts, the “LDH (U/g)” value turned out to be 18.8 U/g, the “EDP (MmHg)” value worked out at 29.0 MmHg, the “LDVP × HR (%)” value is on record as 61.0% and the “TTC” value was determined as 22.2 min.
In the same order, the values of “(2S, 2aR, 10aS)-[(3,4-b)-2a,10a-dihydro-2-dimethoxymethyl-2-methyl-12-nitro-2H-1-benzopyrano]-[(1,2-d)-10H-indolino]-4-oxomorpholine [Example 62]” are greater than 30 µM, 20.5 U/g, 36.5 MmHg, 67.2% and 23.1 min.
In the same order, the values of `COC(=O)[C@@H]1Cc2ccccc2N1[C@H]1c2cc([N+](=O)[O-])ccc2O[C@](C)(C(OC)OC)[C@@H]1O` [Example 6, 1-[(2S, 3R, 4S)-3,4-dihydro-2-dimethoxymethyl-3-hydroxy-2-methyl-6-nitro-2H-1-benzopyran-4-yl]-1H-(2S)-2,3-dihydroindole-2-carboxylic acid methyl ester] are 15.6 µM, 10.4 U/g, 21 MmHg, 62.2% and 24.5 min.

By IC50 is commonly meant the midpoint of a concentration-inhibition curve. Higher therefore signals weaker potency in that assay.
